Experimental findings from patent US20020026053A1, “Novel 3-(substituted) -2- indolinones compounds and use thereof as inhibitors of protein kinase activity” (priority 1997, published 2002) are described below.

The target of this assay is T1, EGFR (Homo sapiens, UniProt P00533).
T1 construct: endogenous in cells; host or cells: A431 cells (lysate, captured with SUMO1 anti-EGFR antibody)
T1 sequence (P00533 25-1210): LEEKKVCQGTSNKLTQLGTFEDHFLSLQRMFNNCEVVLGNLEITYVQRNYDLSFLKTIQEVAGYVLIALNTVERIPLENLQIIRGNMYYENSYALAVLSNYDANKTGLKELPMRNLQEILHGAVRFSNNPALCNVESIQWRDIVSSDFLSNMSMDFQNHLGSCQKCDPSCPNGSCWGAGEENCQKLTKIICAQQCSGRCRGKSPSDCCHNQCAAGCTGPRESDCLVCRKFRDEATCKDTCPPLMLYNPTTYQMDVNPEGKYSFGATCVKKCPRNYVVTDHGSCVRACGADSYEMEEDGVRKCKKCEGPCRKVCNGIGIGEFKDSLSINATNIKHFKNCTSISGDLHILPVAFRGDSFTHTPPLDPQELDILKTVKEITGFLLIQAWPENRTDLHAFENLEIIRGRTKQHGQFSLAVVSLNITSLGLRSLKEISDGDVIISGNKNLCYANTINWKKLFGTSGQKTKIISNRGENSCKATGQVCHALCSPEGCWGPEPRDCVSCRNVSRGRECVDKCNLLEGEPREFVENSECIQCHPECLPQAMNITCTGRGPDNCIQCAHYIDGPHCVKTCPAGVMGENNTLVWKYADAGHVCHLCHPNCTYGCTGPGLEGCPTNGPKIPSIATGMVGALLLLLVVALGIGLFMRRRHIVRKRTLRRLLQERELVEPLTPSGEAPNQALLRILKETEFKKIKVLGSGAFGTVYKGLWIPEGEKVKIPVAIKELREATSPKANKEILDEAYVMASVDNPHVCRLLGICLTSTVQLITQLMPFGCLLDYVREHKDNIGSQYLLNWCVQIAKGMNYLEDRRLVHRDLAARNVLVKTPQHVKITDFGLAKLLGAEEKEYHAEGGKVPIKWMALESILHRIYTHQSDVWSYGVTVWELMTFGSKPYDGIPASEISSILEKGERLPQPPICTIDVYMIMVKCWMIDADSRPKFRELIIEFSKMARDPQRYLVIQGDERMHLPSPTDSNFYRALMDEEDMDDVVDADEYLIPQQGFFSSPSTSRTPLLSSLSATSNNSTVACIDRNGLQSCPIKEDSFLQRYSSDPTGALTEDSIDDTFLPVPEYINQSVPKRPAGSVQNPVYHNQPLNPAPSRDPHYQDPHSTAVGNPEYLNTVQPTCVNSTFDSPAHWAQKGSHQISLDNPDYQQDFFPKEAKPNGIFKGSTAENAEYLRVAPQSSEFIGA
The experiment in a line: Biochemical EGFR Assay. More on the design: concentration or dose not given beside the values. The following applies: protocol P.167. The method in brief: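 Readout is ABTS absorbance at 410 nm after anti-phosphotyrosine and HRP-antibody detection of EGFR autophosphorylation. The kinase was immunocaptured from A431 lysate, exposed 30 min to test compound diluted 1:10 in TBS, then phosphorylated for 5 min with ATP/MnCl2 before an EDTA stop.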
On to `O=C1Nc2ccc(S(=O)(=O)Nc3ccc(C(F)(F)F)cc3)cc2C1=Cc1ccc2ccccc2n1` [10740/E06], for which the “Biochem EGFR % Inhibition (P.167)” value was determined as 0.0%.
The result for `CCCCOc1ccc(C=C2C(=O)Nc3ccc(S(=O)(=O)N4CCOCC4)cc32)cc1` [10740/F11] reads 5.4%.
The value for `Cc1[nH]c2ccccc2c1C=C1C(=O)Nc2c(Br)cc(Br)cc21` [10740/A08] was −7.9%; that for `O=C1Nc2c(Br)cc(Br)cc2C1=Cc1cnc2ccccc2c1` [10740/A02] was −2.4%.
The value for `O=C1Nc2ccc(S(=O)(=O)N3CCOCC3)cc2C1=Cc1cnc2ccccc2c1` [10740/F02] was 5.8%.
`O=C1Nc2ccc(S(=O)(=O)N3CCOCC3)cc2C1=Cc1ccc2ccccc2n1` [10740/F06]: the “Biochem EGFR % Inhibition (P.167)” value turned out to be 19.9%.
Turning to `O=C1Nc2ccc(S(=O)(=O)N3CCOCC3)cc2C1=Cc1ccnc2ccccc12` [10740/F03], the “Biochem EGFR % Inhibition (P.167)” value was 16.8%.
Consider `CCCCOc1ccc(C=C2C(=O)Nc3ccc(Br)c(C)c32)cc1` [10740/C11], for which the “Biochem EGFR % Inhibition (P.167)” value amounted to 18.7%.
`CNS(=O)(=O)c1ccc2c(c1)C(=Cc1ccc3ccccc3n1)C(=O)N2` [10740/D06]: the “Biochem EGFR % Inhibition (P.167)” value stood at 5.8%.
Regarding `CCCCOc1ccc(C=C2C(=O)Nc3ccc(S(=O)(=O)NC)cc32)cc1` [10740/D11], the “Biochem EGFR % Inhibition (P.167)” value is on record as 19.3%.
The value for `Cc1[nH]c2ccccc2c1C=C1C(=O)Nc2ccc(Br)c(C)c21` [10740/C08] was 10.7%.
Turning to `CCCCOc1ccc(C=C2C(=O)Nc3c(Br)cc(Br)cc32)cc1` [10740/A11], the “Biochem EGFR % Inhibition (P.167)” value was determined as 26.0%.
`O=C1Nc2ccc(S(=O)(=O)N3CCOCC3)cc2C1=Cc1ccsc1` [10740/F05]: the “Biochem EGFR % Inhibition (P.167)” value is 14.8%.
Consider `O=C1Nc2ccc(I)cc2C1=Cc1ccsc1` [10740/B05], for which the “Biochem EGFR % Inhibition (P.167)” value came out at 30.7%.
For the molecule `O=C1Nc2c(Br)cc(Br)cc2C1=Cc1ccc2ccccc2n1` [10740/A06], the “Biochem EGFR % Inhibition (P.167)” value was 13.1%.
As to `CCCCOc1ccc(C=C2C(=O)Nc3ccc(CCCl)cc32)cc1` [10740/G11], the “Biochem EGFR % Inhibition (P.167)” value is on record as −3.4%.
In the case of `CNS(=O)(=O)c1ccc2c(c1)C(=Cc1c(C)[nH]c3ccccc13)C(=O)N2` [10740/D08], the “Biochem EGFR % Inhibition (P.167)” value is reported as −5.7%.
Take `COC1CCCN1C=C1C(=O)Nc2c(Br)cc(Br)c(C)c21` (stereo not shown) [10740/H04]: the “Biochem EGFR % Inhibition (P.167)” value is on record as −21.0%.
As for `Cc1c(Br)ccc2c1C(=Cc1cc(Br)cs1)C(=O)N2` [10740/C10], the “Biochem EGFR % Inhibition (P.167)” value is given as 21.9%.
